From ChEMBL document CHEMBL1201862, “PubChem BioAssay data set” (2004)
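Exposure lasted 48 hours, with cells grown in 96-well plates and compounds tested at five concentrations. GI50 marks 50% less growth.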 Active and inactive are the calls of the source. Rule as the data show it: active = GI50 up to about 1.1 µM and inactive = higher.

What was measured:
Test in all cases: NCI-60 cell line screen, 48 h
786-0 = system: 786-0
A498 = system: A498
A549 = system: A549
ACHN = system: ACHN
BT-549 = system: BT-549
CAKI-1 = system: CAKI-1
CCRF-CEM = system: CCRF-CEM
COLO 205 = system: COLO 205
DU-145 = system: DU-145
EKVX = system: EKVX
HCT-116 = system: HCT-116
HCT-15 = system: HCT-15
HL-60 = system: HL-60
HOP-62 = system: HOP-62
HOP-92 = system: HOP-92
HT-29 = system: HT-29
Hs-578T = system: Hs-578T
IGROV-1 = system: IGROV-1
K562 = system: K562
KM12 = system: KM12
LOX IMVI = system: LOX IMVI
M14 = system: M14
MCF7 = system: MCF7
MDA-MB-231 = system: MDA-MB-231
MDA-MB-435 = system: MDA-MB-435
MDA-N = system: MDA-N
MOLT-4 = system: MOLT-4
Malme-3M = system: Malme-3M
NCI-H226 = system: NCI-H226
NCI-H23 = system: NCI-H23
NCI-H460 = system: NCI-H460
NCI-H522 = system: NCI-H522
NCI/ADR-RES = system: NCI/ADR-RES
OVCAR-3 = system: OVCAR-3
OVCAR-4 = system: OVCAR-4
OVCAR-5 = system: OVCAR-5
OVCAR-8 = system: OVCAR-8
PC-3 = system: PC-3
RXF 393 = system: RXF 393
SF-268 = system: SF-268
SF-295 = system: SF-295
SF-539 = system: SF-539
SK-MEL-28 = system: SK-MEL-28
SK-MEL-2 = system: SK-MEL-2
SK-MEL-5 = system: SK-MEL-5
SK-OV-3 = system: SK-OV-3
SN12C = system: SN12C
SNB-19 = system: SNB-19
SNB-75 = system: SNB-75
SR = system: SR
SW-620 = system: SW-620
T47D = system: T47D
TK-10 = system: TK-10
U-251 = system: U-251
UACC-257 = system: UACC-257
UACC-62 = system: UACC-62
UO-31 = system: UO-31
RPMI-8226 = system: RPMI-8226

Measured: GI50

COc1ccc(N2C(=O)C3ON(C(C(N)=O)c4ccccc4)C(c4cc5ccccc5c5ccccc45)C3C2=O)cc1 (stereo unspecified)
inactive: 786-0 32.4 µM | A498 > 50 µM | A549 > 50 µM | ACHN > 50 µM | BT-549 24.7 µM | CAKI-1 9.1 µM | CCRF-CEM 12.7 µM | COLO 205 19.6 µM | DU-145 > 50 µM | EKVX 24.5 µM | HCT-116 18.2 µM | HL-60 9.27 µM | HOP-62 > 50 µM | HOP-92 47.1 µM | HT-29 18 µM | Hs-578T > 50 µM | IGROV-1 18.4 µM | K562 22.9 µM | KM12 32.3 µM | LOX IMVI 24.2 µM | M14 17.7 µM | MCF7 15.6 µM | MDA-MB-231 > 50 µM | MDA-MB-435 18.4 µM | MDA-N 11.8 µM | MOLT-4 14.5 µM | Malme-3M > 50 µM | NCI-H226 26.3 µM | NCI-H23 45.7 µM | NCI-H460 > 50 µM | NCI-H522 29.5 µM | NCI/ADR-RES > 50 µM | OVCAR-3 31.7 µM | OVCAR-4 25.9 µM | OVCAR-5 > 50 µM | OVCAR-8 > 50 µM | PC-3 30.7 µM | RXF 393 21.8 µM | SF-268 40.9 µM | SF-295 > 50 µM | SF-539 16.1 µM | SK-MEL-28 > 50 µM | SK-MEL-2 18.3 µM | SK-MEL-5 19.7 µM | SK-OV-3 > 50 µM | SN12C 14 µM | SNB-19 > 50 µM | SNB-75 40.1 µM | SR 16.1 µM | SW-620 26.9 µM | T47D 28.6 µM | TK-10 28.8 µM | U-251 38.5 µM | UACC-257 22.7 µM | UACC-62 10.6 µM | UO-31 16.7 µM
20.4 µM: HCT-15

CC(C)(C)OC(=O)CCC1NC(=O)[C@@H]2Cc3c([nH]c4ccccc34)C(c3ccccc3)N2C1=O (stereo partly specified)
inactive: 786-0 30.6 µM | A498 36.2 µM | A549 31.8 µM | ACHN 27.9 µM | BT-549 28.6 µM | CAKI-1 29.2 µM | COLO 205 20.9 µM | DU-145 43.7 µM | EKVX 36.6 µM | HCT-116 19.4 µM | HL-60 21.4 µM | HOP-62 24.2 µM | HOP-92 27.9 µM | HT-29 22.8 µM | Hs-578T 16.7 µM | IGROV-1 31.3 µM | K562 > 100 µM | KM12 24.9 µM | LOX IMVI 18.8 µM | M14 25.9 µM | MCF7 32.4 µM | MDA-MB-231 19.7 µM | MDA-MB-435 21.7 µM | MDA-N 19.8 µM | MOLT-4 > 100 µM | Malme-3M 16.4 µM | NCI-H226 30.4 µM | NCI-H23 29.1 µM | NCI-H522 25.2 µM | NCI/ADR-RES 35.5 µM | OVCAR-3 21.6 µM | OVCAR-4 32.7 µM | OVCAR-5 25.1 µM | OVCAR-8 37.2 µM | PC-3 19.3 µM | RPMI-8226 36.9 µM | RXF 393 18.2 µM | SF-268 24.7 µM | SF-295 19.7 µM | SK-MEL-28 44.5 µM | SK-MEL-2 21 µM | SK-MEL-5 17.6 µM | SK-OV-3 29.6 µM | SN12C 23.7 µM | SNB-19 34.3 µM | SR > 100 µM | SW-620 41.7 µM | T47D 27.8 µM | TK-10 33.7 µM | U-251 18.2 µM | UACC-257 21.7 µM | UACC-62 17.7 µM | UO-31 29.4 µM
33 µM: HCT-15
